PMC6600512, “Interactions between β-Lactoglobulin and 3,3′-Diindolylmethane in Model System” (Molecules, 2019)

Molecular target: T1, β-Lactoglobulin (β-LG) (Bos taurus, UniProt P02754)
T1 construct: gene LGB
T1 sequence (P02754 17-178): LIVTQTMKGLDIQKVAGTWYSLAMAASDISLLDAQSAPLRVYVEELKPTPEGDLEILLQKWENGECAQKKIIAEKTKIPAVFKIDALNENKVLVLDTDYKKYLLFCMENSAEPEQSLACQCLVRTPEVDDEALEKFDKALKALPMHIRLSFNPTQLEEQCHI
Test: intrinsic fluorescence enhancement titration (binding constant from […]/ΔF vs […]/Cq); supported by CD, FT-IR, UV, DLS and zeta potential
Settings: read-out: intrinsic fluorescence enhancement titration (binding constant from 1/ΔF vs 1/Cq) (converted)

Kd: 1490 nM
Structure (SMILES): c1ccc2c(Cc3c[nH]c4ccccc34)c[nH]c2c1 [DIM, 3,3′-diindolylmethane]
